Measured values: PubChem BioAssay (NCI)
Where “and” joins values, the source holds several entries; their conditions need not be identical. Equal values may be shown once.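 Five compound concentrations were applied to cells in 96-well plates for 48 hours; endpoints were derived by simple linear interpolation of the resulting dose-response curve. The concentration for 50% growth inhibition is given as GI50. TGI is the concentration that stops growth completely.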

How the values were obtained:
Experiment in all cases: inhibition of tumour cell growth, NCI panel, 48 h
SF-295 CNS = system: SF-295 CNS
UACC-62 melanoma = system: UACC-62 melanoma
NCI-H226 lung = system: NCI-H226 lung
NCI-H460 lung = system: NCI-H460 lung
A498 renal = system: A498 renal
NCI-H522 lung = system: NCI-H522 lung
OVCAR-5 ovarian = system: OVCAR-5 ovarian
SF-268 CNS = system: SF-268 CNS
OVCAR-4 ovarian = system: OVCAR-4 ovarian
SN12C renal = system: SN12C renal

SMILES	GI50 (SF-295 CNS)	TGI (SF-295 CNS)	GI50 (UACC-62 melanoma)	TGI (UACC-62 melanoma)	GI50 (NCI-H226 lung)	TGI (NCI-H226 lung)	GI50 (NCI-H460 lung)	TGI (NCI-H460 lung)	GI50 (A498 renal)	TGI (A498 renal)	GI50 (NCI-H522 lung)	TGI (NCI-H522 lung)	GI50 (OVCAR-5 ovarian)	TGI (OVCAR-5 ovarian)	GI50 (SF-268 CNS)	TGI (SF-268 CNS)	GI50 (OVCAR-4 ovarian)	TGI (OVCAR-4 ovarian)	GI50 (SN12C renal)	TGI (SN12C renal)
CCOc1nccc2c1nc(-c1nonc1N)n2CC	> 25 µM	> 25 µM	> 25000 nM	> 25 µM	> 23100 nM	> 25 µM	> 25000 nM	> 25 µM	24500 nM	> 25 µM	24700 nM	> 25 µM	> 25000 nM	> 25 µM	> 25000 nM	> 25 µM	> 25000 nM	> 25 µM	> 25 µM	> 25 µM
CCN(CC)CCn1c2ccc(OC)cc2c2sc3cc(OC)ccc3c(=O)c21	1.82 µM	3.45 µM	1800 nM	3.47 µM	2460 nM	7.49 µM	1080 nM	2.52 µM	1120 nM	2.35 µM	1710 nM	4.22 µM	1920 nM	4.92 µM	1870 nM	5.35 µM	1840 nM	4.88 µM	2.03 µM	8.75 µM
COc1cccc(N=N/C(=N\NC(=O)c2cc(Br)ccc2O)c2ccc(N(CCC#N)CCC#N)cc2OC)c1	52.6 µg/mL	> 150 µg/mL	60.5 µg/mL	> 150 µg/mL	22 µg/mL	79.7 µg/mL	24.9 µg/mL	82.7 µg/mL	150 µg/mL	> 150 µg/mL	60.5 µg/mL	> 150 µg/mL	79.2 µg/mL	> 150 µg/mL	21.9 µg/mL	122 µg/mL	17.5 µg/mL	60.9 µg/mL	99.4 µg/mL	> 150 µg/mL
O=C(N/N=C/c1ccc(Cl)cc1Cl)c1ccc2nc(-c3ccc(Cl)cc3)[nH]c2c1	1.86 µM	3.5 µM	1780 nM	3.4 µM	1770 nM	3.48 µM	1560 nM	3.13 µM	1740 nM	4.94 µM	2240 nM	5.85 µM	1850 nM	3.97 µM	2080 nM	4.35 µM	1740 nM	3.29 µM	1.96 µM	4.26 µM
Clc1cc(-c2ccccc2)nc2ccccc12		> 100 µM		> 100 µM		92.9 µM		> 100 µM		94.3 µM		34 µM		> 100 µM		> 100 µM		62.3 µM		> 100 µM
COc1cccc(CCC(=O)c2cc3c(N)c(C(=O)Nc4cccc(Cl)c4C)sc3nc2C)c1	0.407 µM	20.1 µM	407 nM	> 100 µM	1450 nM	32.7 µM	376 nM	> 75.2 µM	248 nM	2.47 µM	368 nM		2680 nM	> 100 µM	814 nM	> 100 µM	1560 nM	> 100 µM	0.667 µM	> 100 µM
CC(C)C[C@H](NC(=O)[C@@H](NC(=O)c1cccc(-c2ccccc2)n1)[C@@H](C)O)B(O)O	0.0102 µM	0.0553 µM and 0.0262 µM	5.58 nM and < 11.1 nM	0.0311 µM and 0.0412 µM	2.19 nM and < 11.6 nM	0.00538 µM and 0.0245 µM	28.5 nM and 23.7 nM	0.532 µM	2.47 nM	0.0061 µM and < 0.0178 µM	3.02 nM	0.00881 µM	8.43 nM and < 11.2 nM	0.0513 µM	9.52 nM and 12 nM	0.0436 µM	12.4 nM and 18.5 nM	79 µM	0.0151 µM and 0.0193 µM	0.413 µM
Nc1cc(S(N)(=O)=O)ccc1SSc1ccc(S(N)(=O)=O)cc1N		> 100 µM		> 100 µM		> 100 µM		> 100 µM		> 100 µM		> 100 µM		> 100 µM		> 100 µM		> 100 µM		> 100 µM
O=C(CNc1ccc2c(=S)c3ccccc3[nH]c2c1)Nc1ccccc1-c1ccccc1NC(=O)CNc1ccc2c(=S)c3ccccc3[nH]c2c1		50.8 µM		44.3 µM		54.6 µM		36.9 µM		55.6 µM		24.1 µM		53.5 µM		52.8 µM		45.2 µM		53.7 µM
CS/C(c1ccccc1)=[N+](\[O-])Cc1ccccc1		> 100 µM		> 100 µM		> 100 µM		> 100 µM		> 100 µM		> 100 µM		> 100 µM		> 100 µM		> 100 µM		> 100 µM
Nc1ccc(C(OC(=O)c2cc3ccccc3c(Cc3c(O)c(C(=O)OC(c4ccc(N)cc4)(c4ccc(N)cc4)c4ccc(N)cc4)cc4ccccc34)c2O)(c2ccc(N)cc2)c2ccc(N)cc2)cc1	0.475 µM	> 100 µM	1980 nM	11.9 µM	1760 nM	15.7 µM	728 nM	7.24 µM	548 nM	5.25 µM	588 nM	12.4 µM	2700 nM	17.2 µM	471 nM	18.7 µM	2030 nM	56.6 µM	0.321 µM	59.1 µM
C[C@@H](COCCC(=O)N1CCN(c2ncc(C(F)(F)F)cn2)CC1)Nc1cn[nH]c(=O)c1C(F)(F)F	19.5 µM	> 100 µM	45300 nM	> 100 µM	> 56200 nM	> 100 µM	18600 nM	> 100 µM	21.9 nM		96900 nM	> 100 µM	> 100000 nM	> 100 µM	42800 nM	> 100 µM	27800 nM	> 100 µM	31.1 µM	> 100 µM
Cn1cnc2c(F)c(Nc3ccc(Br)cc3F)c(C(=O)NOCCO)cc21	> 67.7 µM	> 100 µM	17.4 nM and 23.4 nM	0.228 µM and 0.664 µM		> 100 µM	> 100000 nM	> 100 µM	18.4 nM and 31.4 nM	0.275 µM and 0.394 µM	> 63200 nM	> 100 µM	28.6 nM and 22 nM	> 48.4 µM	> 2050 nM and 50500 nM	> 100 µM	8060 nM	> 100 µM	13.7 µM	> 100 µM
CN1C[C@@H]2Cn3c(c(C4=C(c5cn(C)c6ccccc56)C(=O)NC4=O)c4ccccc43)C[C@H]2C1	3.42 µM and 3.76 µM	7.15 µM and 8.89 µM	3890 nM and 3610 nM	7.64 µM and 7.19 µM	4530 nM and 4060 nM	15 µM and 10.9 µM	4610 nM and 4350 nM	8.9 µM	4760 nM and 4450 nM	8.59 µM and 8.23 µM	4160 nM and 3630 nM	8.15 µM and 7.81 µM	6860 nM and 5420 nM	23.1 µM and 17.2 µM	4800 nM and 4930 nM	9.46 µM and 9.97 µM	3360 nM and 3480 nM	9.12 µM and 8.91 µM	3.45 µM and 3.3 µM	8.8 µM and 8.65 µM
COc1cc(NC(=O)NCc2ccco2)ccc1-c1ccc(NC(=O)NCc2ccco2)cc1OC	1.25 µM	14.4 µM	1250 nM	5.18 µM	1460 nM	7.92 µM	526 nM	> 100 µM	1720 nM	8.25 µM	2000 nM	5.33 µM	19500 nM	> 100 µM	980 nM	13.6 µM	1470 nM	3.71 µM	3.17 µM	23.3 µM
CC1(C)CC([P+](c2ccccc2)(c2ccccc2)c2ccccc2)=NN1	8.68 µM	43.9 µM	3170 nM	> 100 µM	5530 nM	84.5 µM	6090 nM	> 100 µM	4240 nM	35.7 µM	2520 nM	> 100 µM	18700 nM	> 100 µM	5090 nM	> 100 µM	3070 nM	> 100 µM	4.39 µM	> 100 µM
NC(=O)c1ccccc1NC(=O)c1ccccc1Cl	> 100 µM	> 100 µM	> 100000 nM	> 100 µM	> 100000 nM	> 100 µM	> 100000 nM	> 100 µM	56200 nM	> 100 µM	> 100000 nM	> 100 µM	> 100000 nM	> 100 µM	> 100000 nM	> 100 µM	> 100000 nM	> 100 µM	> 100 µM	> 100 µM
Clc1ccc(CNc2nccc(-c3cnn4ncccc34)n2)cc1	5.36 µM	> 18.2 µM	3740 nM	8.73 µM	7790 nM	> 25 µM	7920 nM	> 25 µM	5070 nM	10.4 µM	5850 nM	19.3 µM	7660 nM	24.7 µM	7250 nM	> 22.7 µM	7470 nM	> 25 µM	7.54 µM	> 25 µM
NS(=O)(=O)c1ccc(-n2ncc3c(Nc4ccccc4)ncnc32)cc1	16.9 µM	53.4 µM	42800 nM	> 100 µM	46400 nM	> 100 µM	14900 nM	> 100 µM	24300 nM	92.7 µM	51100 nM	> 100 µM	34900 nM	> 100 µM	43100 nM	> 100 µM	32100 nM	> 100 µM	> 100 µM	> 100 µM
O=C(N/C(=C\c1ccc(/C=C(\NC(=O)c2ccccc2)c2nc3ccccc3s2)cc1)c1nc2ccccc2s1)c1ccccc1		16.1 µM		12 µM		34.3 µM		14.6 µM		32.5 µM		4.1 µM		31 µM		21.1 µM		19.6 µM		12.6 µM
COc1ccc(-c2cc(-c3cccc(NS(C)(=O)=O)c3)nc(N)c2C#N)cc1	0.0497 µM	2.87 µM	45.9 nM	15.9 µM	72.5 nM	28.2 µM	87.1 nM	10.8 µM	116 nM	54 µM	16.4 nM	1.25 µM	416 nM	> 64.6 µM	281 nM	22 µM	1240 nM	99.6 µM	0.298 µM	25.1 µM
